Results on seven compounds are retold here after ChEMBL document CHEMBL4334529, “Polypropionate Derivatives with Mycobacterium tuberculosis Protein Tyrosine Phosphatase B Inhibitory Activities from the Deep-Sea-Derived Fungus Aspergillus fischeri FS452” (J Nat Prod, 2019).

In assay [1] the target is T1, Phosphotyrosine protein phosphatase (Mycobacterium tuberculosis, UniProt A0A045ISB3).
T1 sequence (A0A045ISB3 whole entry): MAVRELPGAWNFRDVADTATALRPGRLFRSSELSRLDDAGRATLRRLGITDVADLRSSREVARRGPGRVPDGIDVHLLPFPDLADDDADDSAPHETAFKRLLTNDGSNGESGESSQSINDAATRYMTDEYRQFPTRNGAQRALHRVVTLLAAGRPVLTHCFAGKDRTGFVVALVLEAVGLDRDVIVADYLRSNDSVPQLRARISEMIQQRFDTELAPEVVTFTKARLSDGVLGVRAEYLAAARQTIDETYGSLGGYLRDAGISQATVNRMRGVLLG
Description: Inhibition of Mycobacterium tuberculosis H37Rv ptpB expressed in Escherichia coli BL21 (DH3) cells using 6,8-difluoromethylumbelliferyl phosphate as substrate incubated for 30 mins by fluorescence based assay.

Assay [2] deals with T1, Phosphotyrosine protein phosphatase. Description: Non-competitive inhibition of Mycobacterium tuberculosis H37Rv ptpB expressed in Escherichia coli BL21 (DH3) cells using p-nitrophenyl phosphate as substrate incubated for 30 mins by Lineweaver-Burk blot analysis.
In the next assay the test system is Candida albicans. Description: Antifungal activity against Candida albicans. The format is functional, organism-based.

The structures appear in SMILES notation. Active and inactive are the calls of the source. The rule behind the calls is not given here.

On to `CC1(C)CC[C@]2(C(=O)O)CC[C@]3(C)C(=CC[C@@H]4[C@@]5(C)CC[C@H](O)C(C)(C)[C@@H]5CC[C@]43C)[C@@H]2C1` [OLEANOLIC_ACID], for which the midpoint of inhibition in assay [1], the IC50, lay at 14 µM.
With `CC[C@H](C)C[C@H](C)C[C@@H]1CO[C@@H](\C(C)=C/C(=C/C=C/CC(=O)O)C(=O)O)[C@H](C)C1`, the affinity in assay [2] corresponds to a Ki of 7 µM. In addition, the IC50 in assay [1] (read-out: IC50) is 12 µM. For the same compound, the result with Candida albicans was inactive.
As for `CC[C@H](C)C[C@H](C)C[C@H](CO)C[C@@H](C)/C=C(C)/C=C(C)\C=C\C=C\C(=O)N1CCCC(O)C1=O` (some centres not stated), the IC50 in assay [1] (read-out: IC50) is more than 50 µM. In addition, the result in the assay with Candida albicans was inactive.
Take `C/C(=C\[C@H](C)C[C@@H](C)C[C@@H](C)C[C@@H](C)[C@@H](C)O)C(=O)NCCC(=O)O`: the IC50 in assay [1] (read-out: IC50) was more than 50 µM. Further, in the assay on Candida albicans, the result was inactive.
As for `CC[C@H](COC(C)=O)C[C@H](C)C[C@H](C)C[C@@H](C)/C=C(C)/C=C(/C=C/C=C/C(=O)O)C(=O)O`, the Ki in assay [2] worked out at 5.2 µM. In assay [1] (read-out: IC50), the IC50 worked out at 4 µM. Also, the outcome in the assay on Candida albicans was inactive.
On the same counts, the results for `CC[C@H](C)C[C@H](C)C[C@H](CO)C[C@@H](C)/C=C(C)/C=C(C)/C=C/C=C/C(=O)N1CCCC(O)C1=O` (some centres not stated) are 16 µM, 11 µM and “inactive”.
In the same order, the values of `CC[C@H](C)C[C@H](C)C[C@@H]1CO[C@@H](/C(C)=C/C(=C\C=C\CC(=O)O)C(=O)O)[C@H](C)C1` are 8.9 µM, 5.1 µM and “inactive”.

Broadly, the IC50 is the concentration needed to halve the response being measured. What is called Ki is the equilibrium dissociation constant of an inhibitor or competing ligand from its target. High values mean weaker binding, low ones tighter binding.
